Data: ChEMBL document CHEMBL3991601, “The target landscape of clinical kinase drugs” (Science, 2017)
The source made the active and inactive calls. Rule as the data show it, for most assays here: actives have a measured Kd and inactives only a lower limit.

Experiments:
[1] = biological target: T1, Very long-chain specific acyl-CoA dehydrogenase, mitochondrial (Homo sapiens, UniProt P49748)
T1 sequence (P49748 whole entry): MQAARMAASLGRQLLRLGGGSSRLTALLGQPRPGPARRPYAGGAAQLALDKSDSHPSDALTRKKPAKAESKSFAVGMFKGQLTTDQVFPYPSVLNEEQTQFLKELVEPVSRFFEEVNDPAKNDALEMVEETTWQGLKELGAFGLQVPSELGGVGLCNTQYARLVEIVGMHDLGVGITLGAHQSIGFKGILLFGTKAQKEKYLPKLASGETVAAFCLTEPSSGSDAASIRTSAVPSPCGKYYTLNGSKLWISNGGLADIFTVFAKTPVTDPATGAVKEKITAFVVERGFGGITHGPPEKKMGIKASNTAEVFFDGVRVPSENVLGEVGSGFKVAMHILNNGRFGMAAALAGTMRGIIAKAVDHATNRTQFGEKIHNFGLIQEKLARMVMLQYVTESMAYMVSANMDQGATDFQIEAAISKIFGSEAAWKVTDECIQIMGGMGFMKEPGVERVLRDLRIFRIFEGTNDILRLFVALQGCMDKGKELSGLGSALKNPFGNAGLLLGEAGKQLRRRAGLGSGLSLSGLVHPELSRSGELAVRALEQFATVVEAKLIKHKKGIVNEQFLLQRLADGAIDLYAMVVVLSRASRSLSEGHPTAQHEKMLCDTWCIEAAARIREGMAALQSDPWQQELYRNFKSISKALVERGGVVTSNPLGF

[2] = biological target: Proto-oncogene tyrosine-protein kinase receptor Ret (Homo sapiens, UniProt P07949)
[3] = biological target: Tyrosine-protein kinase JAK1 (Homo sapiens, UniProt P23458)
[4] = biological target: T2, Ribosyldihydronicotinamide dehydrogenase [quinone] (Homo sapiens, UniProt P16083)
T2 sequence (P16083 whole entry): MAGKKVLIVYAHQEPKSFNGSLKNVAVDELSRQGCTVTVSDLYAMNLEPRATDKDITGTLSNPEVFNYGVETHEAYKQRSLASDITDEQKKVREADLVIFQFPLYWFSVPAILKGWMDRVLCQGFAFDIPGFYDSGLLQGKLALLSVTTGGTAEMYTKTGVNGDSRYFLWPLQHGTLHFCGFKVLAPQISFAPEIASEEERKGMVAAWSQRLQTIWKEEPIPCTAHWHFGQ

[5] = biological target: Cyclin-dependent kinase 12 (Homo sapiens, UniProt Q9NYV4)
[6] = biological target: T3, Non-receptor tyrosine-protein kinase TNK1 (Homo sapiens, UniProt Q13470)
T3 sequence (Q13470 whole entry): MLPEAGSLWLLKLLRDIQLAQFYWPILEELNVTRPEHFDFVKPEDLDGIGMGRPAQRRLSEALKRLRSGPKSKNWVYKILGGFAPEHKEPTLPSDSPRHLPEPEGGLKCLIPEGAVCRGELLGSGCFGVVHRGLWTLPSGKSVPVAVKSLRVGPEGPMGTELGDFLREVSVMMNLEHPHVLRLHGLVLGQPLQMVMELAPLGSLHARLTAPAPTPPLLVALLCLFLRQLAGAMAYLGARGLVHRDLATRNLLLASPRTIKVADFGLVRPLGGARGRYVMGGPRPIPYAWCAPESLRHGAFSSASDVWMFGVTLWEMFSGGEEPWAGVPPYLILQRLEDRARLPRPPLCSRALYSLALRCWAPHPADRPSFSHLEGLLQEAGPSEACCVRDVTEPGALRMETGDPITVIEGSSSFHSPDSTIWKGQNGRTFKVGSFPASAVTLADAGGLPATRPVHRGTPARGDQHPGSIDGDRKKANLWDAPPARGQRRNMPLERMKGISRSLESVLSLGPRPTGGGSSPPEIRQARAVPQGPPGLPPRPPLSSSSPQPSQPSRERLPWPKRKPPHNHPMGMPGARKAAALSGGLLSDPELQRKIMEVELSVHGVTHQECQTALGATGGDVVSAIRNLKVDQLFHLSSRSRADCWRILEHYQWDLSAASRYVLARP

[7] = biological target: T4, Acyl-CoA dehydrogenase family member 10 (Homo sapiens, UniProt Q6JQN1)
T4 sequence (Q6JQN1 whole entry): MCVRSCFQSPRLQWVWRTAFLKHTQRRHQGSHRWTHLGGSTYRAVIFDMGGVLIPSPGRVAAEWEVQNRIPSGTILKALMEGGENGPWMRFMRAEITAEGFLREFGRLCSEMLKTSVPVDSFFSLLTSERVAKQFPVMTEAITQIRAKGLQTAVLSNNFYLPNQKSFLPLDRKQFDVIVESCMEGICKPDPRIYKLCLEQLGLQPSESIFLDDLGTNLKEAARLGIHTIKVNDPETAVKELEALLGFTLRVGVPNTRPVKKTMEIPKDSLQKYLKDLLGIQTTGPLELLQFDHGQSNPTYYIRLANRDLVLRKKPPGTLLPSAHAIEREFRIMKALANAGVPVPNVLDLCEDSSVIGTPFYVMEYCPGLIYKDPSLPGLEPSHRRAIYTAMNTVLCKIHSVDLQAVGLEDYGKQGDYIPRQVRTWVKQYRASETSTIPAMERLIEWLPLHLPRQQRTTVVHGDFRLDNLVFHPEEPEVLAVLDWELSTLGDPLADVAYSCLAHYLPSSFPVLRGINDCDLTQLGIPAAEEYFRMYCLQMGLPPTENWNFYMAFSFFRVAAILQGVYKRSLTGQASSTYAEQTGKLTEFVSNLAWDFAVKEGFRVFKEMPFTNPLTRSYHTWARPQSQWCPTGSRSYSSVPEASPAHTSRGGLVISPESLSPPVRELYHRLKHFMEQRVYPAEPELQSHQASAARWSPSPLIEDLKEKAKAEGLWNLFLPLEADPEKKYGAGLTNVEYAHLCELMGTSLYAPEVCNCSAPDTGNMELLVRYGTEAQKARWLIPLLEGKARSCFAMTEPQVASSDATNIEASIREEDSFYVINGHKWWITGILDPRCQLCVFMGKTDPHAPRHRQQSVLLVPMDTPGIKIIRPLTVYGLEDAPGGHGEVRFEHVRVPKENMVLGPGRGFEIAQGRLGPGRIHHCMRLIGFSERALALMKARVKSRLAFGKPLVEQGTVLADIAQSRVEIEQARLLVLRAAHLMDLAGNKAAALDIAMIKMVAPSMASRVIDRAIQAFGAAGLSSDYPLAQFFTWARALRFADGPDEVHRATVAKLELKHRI

[8] = biological target: Protein-tyrosine kinase 2-beta (Homo sapiens, UniProt Q14289)
[9] = biological target: Focal adhesion kinase 1 (Homo sapiens, UniProt Q05397)
[10] = biological target: Tyrosine-protein kinase Fer (Homo sapiens, UniProt P16591)
Also: in the data inactive means no Kd found up to 30 µM.

Sequence of Tyrosine-protein kinase JAK1 (P23458 whole entry): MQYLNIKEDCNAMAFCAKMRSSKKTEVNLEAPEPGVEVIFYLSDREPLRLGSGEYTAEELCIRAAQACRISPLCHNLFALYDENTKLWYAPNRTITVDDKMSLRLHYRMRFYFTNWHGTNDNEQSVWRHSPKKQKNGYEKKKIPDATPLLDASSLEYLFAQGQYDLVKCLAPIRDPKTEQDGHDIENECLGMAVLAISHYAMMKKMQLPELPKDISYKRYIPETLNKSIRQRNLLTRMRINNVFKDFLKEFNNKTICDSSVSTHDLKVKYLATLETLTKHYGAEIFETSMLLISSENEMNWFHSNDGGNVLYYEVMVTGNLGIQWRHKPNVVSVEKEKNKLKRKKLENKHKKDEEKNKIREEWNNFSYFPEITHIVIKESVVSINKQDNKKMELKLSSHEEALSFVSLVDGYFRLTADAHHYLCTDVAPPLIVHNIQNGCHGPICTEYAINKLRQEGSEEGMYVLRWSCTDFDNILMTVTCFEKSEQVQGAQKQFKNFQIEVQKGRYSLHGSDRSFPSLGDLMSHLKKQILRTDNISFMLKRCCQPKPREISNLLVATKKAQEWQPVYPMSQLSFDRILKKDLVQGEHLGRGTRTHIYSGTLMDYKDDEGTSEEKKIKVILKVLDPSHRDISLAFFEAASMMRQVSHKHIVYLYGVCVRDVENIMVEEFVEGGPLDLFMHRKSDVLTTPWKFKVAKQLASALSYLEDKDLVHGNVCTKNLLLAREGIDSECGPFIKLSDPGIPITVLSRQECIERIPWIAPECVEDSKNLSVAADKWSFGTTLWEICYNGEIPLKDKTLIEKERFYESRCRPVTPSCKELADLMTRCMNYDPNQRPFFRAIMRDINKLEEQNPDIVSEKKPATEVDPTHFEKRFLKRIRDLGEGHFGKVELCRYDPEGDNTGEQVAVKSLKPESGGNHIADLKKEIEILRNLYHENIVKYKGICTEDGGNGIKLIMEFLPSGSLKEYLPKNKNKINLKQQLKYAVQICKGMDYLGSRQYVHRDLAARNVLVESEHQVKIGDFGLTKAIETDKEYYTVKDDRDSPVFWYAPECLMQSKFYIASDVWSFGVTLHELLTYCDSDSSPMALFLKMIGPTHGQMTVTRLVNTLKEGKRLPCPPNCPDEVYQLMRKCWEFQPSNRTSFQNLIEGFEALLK
Sequence of Cyclin-dependent kinase 12 (Q9NYV4 whole entry): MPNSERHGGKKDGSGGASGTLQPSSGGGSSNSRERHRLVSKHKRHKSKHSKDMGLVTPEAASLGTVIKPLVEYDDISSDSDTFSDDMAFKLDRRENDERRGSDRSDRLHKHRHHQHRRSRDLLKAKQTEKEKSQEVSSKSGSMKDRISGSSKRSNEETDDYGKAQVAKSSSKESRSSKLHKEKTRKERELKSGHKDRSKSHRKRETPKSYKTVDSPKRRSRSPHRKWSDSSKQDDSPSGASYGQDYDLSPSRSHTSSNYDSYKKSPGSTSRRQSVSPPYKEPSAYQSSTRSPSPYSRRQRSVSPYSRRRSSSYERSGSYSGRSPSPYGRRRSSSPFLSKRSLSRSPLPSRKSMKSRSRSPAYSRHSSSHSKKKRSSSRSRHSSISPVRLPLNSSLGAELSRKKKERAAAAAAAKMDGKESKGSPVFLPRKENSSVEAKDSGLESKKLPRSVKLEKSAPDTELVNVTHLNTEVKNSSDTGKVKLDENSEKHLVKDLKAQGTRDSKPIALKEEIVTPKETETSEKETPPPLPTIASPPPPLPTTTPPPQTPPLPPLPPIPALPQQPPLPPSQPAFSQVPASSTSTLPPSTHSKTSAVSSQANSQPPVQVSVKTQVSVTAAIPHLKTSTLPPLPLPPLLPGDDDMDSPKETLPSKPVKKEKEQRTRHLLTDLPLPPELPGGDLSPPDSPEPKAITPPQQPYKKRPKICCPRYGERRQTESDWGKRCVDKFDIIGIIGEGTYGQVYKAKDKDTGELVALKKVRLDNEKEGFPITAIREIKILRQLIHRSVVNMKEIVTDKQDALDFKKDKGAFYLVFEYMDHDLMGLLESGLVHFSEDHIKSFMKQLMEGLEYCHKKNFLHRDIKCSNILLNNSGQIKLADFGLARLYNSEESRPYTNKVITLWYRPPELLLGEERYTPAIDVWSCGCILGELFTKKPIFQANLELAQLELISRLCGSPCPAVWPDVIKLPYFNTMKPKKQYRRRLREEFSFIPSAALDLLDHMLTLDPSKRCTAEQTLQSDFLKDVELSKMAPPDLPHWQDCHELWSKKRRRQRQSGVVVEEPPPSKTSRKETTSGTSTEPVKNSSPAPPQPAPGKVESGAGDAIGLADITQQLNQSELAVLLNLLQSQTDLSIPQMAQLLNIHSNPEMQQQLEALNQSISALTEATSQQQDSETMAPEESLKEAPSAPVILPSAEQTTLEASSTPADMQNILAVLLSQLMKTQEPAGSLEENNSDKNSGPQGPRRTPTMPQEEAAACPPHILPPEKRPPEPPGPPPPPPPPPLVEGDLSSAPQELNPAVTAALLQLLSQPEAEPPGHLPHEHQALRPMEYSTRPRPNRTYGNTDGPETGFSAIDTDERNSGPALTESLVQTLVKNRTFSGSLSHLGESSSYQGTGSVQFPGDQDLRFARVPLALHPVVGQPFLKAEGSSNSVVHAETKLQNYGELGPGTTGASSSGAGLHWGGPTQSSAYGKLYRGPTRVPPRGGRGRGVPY
Sequence of Protein-tyrosine kinase 2-beta (Q14289 whole entry): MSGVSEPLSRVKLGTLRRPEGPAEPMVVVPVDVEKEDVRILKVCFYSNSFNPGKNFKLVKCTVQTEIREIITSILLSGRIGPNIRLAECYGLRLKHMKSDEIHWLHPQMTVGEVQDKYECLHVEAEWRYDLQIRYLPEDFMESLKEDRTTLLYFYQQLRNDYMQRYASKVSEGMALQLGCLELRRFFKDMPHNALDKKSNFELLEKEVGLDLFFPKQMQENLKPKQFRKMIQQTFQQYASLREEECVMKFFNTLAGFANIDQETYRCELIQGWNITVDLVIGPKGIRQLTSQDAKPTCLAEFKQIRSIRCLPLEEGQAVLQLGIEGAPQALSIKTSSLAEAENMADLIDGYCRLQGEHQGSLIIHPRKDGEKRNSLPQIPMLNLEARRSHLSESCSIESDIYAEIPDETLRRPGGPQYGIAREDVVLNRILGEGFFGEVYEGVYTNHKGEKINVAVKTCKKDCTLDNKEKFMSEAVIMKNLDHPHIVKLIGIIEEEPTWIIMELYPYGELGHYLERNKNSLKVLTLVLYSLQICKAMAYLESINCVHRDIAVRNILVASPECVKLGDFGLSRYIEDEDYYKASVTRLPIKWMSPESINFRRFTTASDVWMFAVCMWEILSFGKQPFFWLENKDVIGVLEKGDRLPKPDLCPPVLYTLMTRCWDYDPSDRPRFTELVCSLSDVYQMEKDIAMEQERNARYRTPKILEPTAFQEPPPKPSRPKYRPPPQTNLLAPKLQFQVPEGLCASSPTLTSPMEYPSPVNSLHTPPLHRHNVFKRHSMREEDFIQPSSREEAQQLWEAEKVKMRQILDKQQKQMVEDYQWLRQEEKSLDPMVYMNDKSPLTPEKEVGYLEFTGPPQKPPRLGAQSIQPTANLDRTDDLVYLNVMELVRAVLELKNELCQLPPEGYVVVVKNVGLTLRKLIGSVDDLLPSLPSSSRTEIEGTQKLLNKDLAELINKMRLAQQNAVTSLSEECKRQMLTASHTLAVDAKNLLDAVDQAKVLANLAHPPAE
Sequence of Focal adhesion kinase 1 (Q05397 whole entry): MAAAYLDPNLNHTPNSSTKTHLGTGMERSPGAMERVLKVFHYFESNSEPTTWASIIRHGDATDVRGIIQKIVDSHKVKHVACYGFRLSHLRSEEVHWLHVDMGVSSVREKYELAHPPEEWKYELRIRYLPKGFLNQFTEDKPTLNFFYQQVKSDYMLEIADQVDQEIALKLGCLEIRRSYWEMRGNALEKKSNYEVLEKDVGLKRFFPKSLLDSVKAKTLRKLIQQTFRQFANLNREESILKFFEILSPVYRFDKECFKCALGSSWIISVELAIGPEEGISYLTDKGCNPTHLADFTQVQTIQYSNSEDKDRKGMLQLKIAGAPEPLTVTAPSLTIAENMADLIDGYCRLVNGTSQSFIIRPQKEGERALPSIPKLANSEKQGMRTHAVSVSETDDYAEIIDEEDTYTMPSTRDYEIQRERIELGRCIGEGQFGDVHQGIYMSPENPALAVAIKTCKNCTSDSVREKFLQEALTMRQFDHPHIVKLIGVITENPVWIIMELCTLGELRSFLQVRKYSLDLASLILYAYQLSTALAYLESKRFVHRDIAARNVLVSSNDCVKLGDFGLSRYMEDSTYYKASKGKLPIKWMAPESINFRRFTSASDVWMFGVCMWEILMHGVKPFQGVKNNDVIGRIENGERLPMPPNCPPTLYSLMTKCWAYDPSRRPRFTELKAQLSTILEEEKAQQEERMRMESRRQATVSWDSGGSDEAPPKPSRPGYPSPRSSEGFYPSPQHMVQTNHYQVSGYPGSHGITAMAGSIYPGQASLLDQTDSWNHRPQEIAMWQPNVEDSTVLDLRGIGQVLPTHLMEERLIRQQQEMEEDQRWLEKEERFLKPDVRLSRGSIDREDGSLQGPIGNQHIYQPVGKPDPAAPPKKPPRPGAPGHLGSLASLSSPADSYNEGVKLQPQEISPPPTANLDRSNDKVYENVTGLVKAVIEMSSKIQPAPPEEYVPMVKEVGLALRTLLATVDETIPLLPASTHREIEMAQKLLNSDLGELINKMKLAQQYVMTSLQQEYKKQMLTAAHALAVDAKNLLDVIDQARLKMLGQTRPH

Row | SMILES | Kd [1] | Kd [2] | Kd [3] | Kd [4] | Kd [5] | Kd [6] | Kd [7] | Kd [8] | Kd [9] | Kd [10]
1 | CC(=O)c1cnc2ccc(-c3cc(Cl)c(O)c(Cl)c3)nc2c1N[C@H]1CC[C@H](CN(C)C)CC1 | > 30 µM (inactive) | 0.028 µM (active) | > 30 µM (inactive) | > 30 µM (inactive) | > 30 µM (inactive) | 1.78 µM (active) | > 30 µM (inactive) | 0.03 µM (active) | 0.118 µM (active) | 
2 | COc1cc(Nc2ncc3c(n2)-c2ccc(Cl)cc2C(c2c(F)cccc2OC)=NC3)ccc1C(=O)O [ALISERTIB] | > 30 µM (inactive) |  | > 30 µM (inactive) | > 30 µM (inactive) | > 30 µM (inactive) |  |  | > 30 µM (inactive) |  | 
3 | O=C(Nc1c[nH]nc1-c1nc2cc(CN3CCOCC3)ccc2[nH]1)NC1CC1 [AT-9283] | > 30 µM (inactive) |  | 0.368 µM (active) | > 30 µM (inactive) | > 30 µM (inactive) |  |  | > 30 µM (inactive) | > 30 µM (inactive) | 
4 | CNC(=O)c1ccccc1Sc1ccc2c(/C=C/c3ccccn3)n[nH]c2c1 [AXITINIB] | > 30 µM (inactive) |  |  | > 30 µM (inactive) | > 30 µM (inactive) |  | > 30 µM (inactive) |  |  | 
5 | NC(=O)Nc1cc(-c2cccc(F)c2)sc1C(=O)N[C@H]1CCCNC1 [AZD-7762] | > 30 µM (inactive) | 0.023 µM (active) | > 30 µM (inactive) | > 30 µM (inactive) | > 30 µM (inactive) | > 30 µM (inactive) | > 30 µM (inactive) | 0.608 µM (active) | 0.948 µM (active) | 
6 | COc1cc2ncnc(Oc3cccc(NC(=O)Nc4cc(C(C)(C)C(F)(F)F)on4)c3)c2cc1OC [CEP-32496] | > 30 µM (inactive) |  | > 30 µM (inactive) | > 30 µM (inactive) | > 30 µM (inactive) | > 30 µM (inactive) | > 30 µM (inactive) | > 30 µM (inactive) | > 30 µM (inactive) | 0.98 µM (active)
7 | Cc1cc(Nc2ncc(Cl)c(Nc3ccccc3S(=O)(=O)C(C)C)n2)c(OC(C)C)cc1C1CCNCC1 [CERITINIB] | > 30 µM (inactive) |  | > 30 µM (inactive) | > 30 µM (inactive) | > 30 µM (inactive) | 0.027 µM (active) | > 30 µM (inactive) | 18.4 µM (active) |  | 0.214 µM (active)
8 | C#Cc1cccc(Nc2ncnc3cc(OC)c(OCCCCCCC(=O)NO)cc23)c1 [CUDC-101] | > 30 µM (inactive) |  | > 30 µM (inactive) | > 30 µM (inactive) | > 30 µM (inactive) | > 30 µM (inactive) | > 30 µM (inactive) | > 30 µM (inactive) | > 30 µM (inactive) | > 30 µM (inactive)
9 | CC(C)(C)c1nc(-c2cccc(NS(=O)(=O)c3c(F)cccc3F)c2F)c(-c2ccnc(N)n2)s1 [DABRAFENIB] | > 30 µM (inactive) |  | > 30 µM (inactive) | > 30 µM (inactive) | > 30 µM (inactive) | 0.066 µM (active) | > 30 µM (inactive) | > 30 µM (inactive) | > 30 µM (inactive) | > 30 µM (inactive)
10 | Cn1cc(C2=C(c3cn(C4CCN(Cc5ccccn5)CC4)c4ccccc34)C(=O)NC2=O)c2ccccc21 [ENZASTAURIN] | > 30 µM (inactive) |  |  | > 30 µM (inactive) | > 30 µM (inactive) |  | > 30 µM (inactive) |  |  | 
11 | C[C@@H](Oc1cc(-n2cnc3ccc(CN4CCN(C)CC4)cc32)sc1C(N)=O)c1ccccc1C(F)(F)F [GSK-461364] | > 30 µM (inactive) |  |  | > 30 µM (inactive) | > 30 µM (inactive) |  | > 30 µM (inactive) |  |  | 
12 | CN(C[C@@H]1COCCO1)S(=O)(=O)Nc1ccc2ccc3ncc(-c4cnn(C)c4)cc3c(=O)c2c1 [MK-2461] | > 30 µM (inactive) |  | > 30 µM (inactive) | 52.6 µM (active) | > 30 µM (inactive) | > 30 µM (inactive) |  | > 30 µM (inactive) | > 30 µM (inactive) | > 30 µM (inactive)
13 | Cc1[nH]c(/C=C2\C(=O)Nc3ccccc32)c(C)c1CCC(=O)O [ORANTINIB] | > 30 µM (inactive) |  | > 30 µM (inactive) | > 30 µM (inactive) | > 30 µM (inactive) |  | > 30 µM (inactive) |  |  | 
14 | NC(=O)c1c(OCc2c(F)cc(Br)cc2F)nsc1NC(=O)NCCCCN1CCCC1 [OSI-632] | > 30 µM (inactive) |  | > 30 µM (inactive) | > 30 µM (inactive) | > 30 µM (inactive) | > 30 µM (inactive) | > 30 µM (inactive) |  |  | 
15 | CC(=O)NCC(=O)N1[C@@H]2CC[C@H]1c1ccc(Nc3ncc(C(F)(F)F)c(NC4CCC4)n3)cc12 [PF-03814735] | > 30 µM (inactive) |  |  | > 30 µM (inactive) | > 30 µM (inactive) | 0.369 µM (active) | > 30 µM (inactive) |  |  | 
16 | CNC(=O)c1cc(Oc2ccc(NC(=O)Nc3cc(C(C)(C)C)nn3-c3ccc4ncccc4c3)c(F)c2)ccn1 [REBASTINIB] | > 30 µM (inactive) |  | > 30 µM (inactive) | > 30 µM (inactive) | > 30 µM (inactive) | 0.055 µM (active) | > 30 µM (inactive) | 9.24 µM (active) | > 30 µM (inactive) | 
17 | O=C(NOCCO)c1cc(CN2OCCCC2=O)c(F)c(F)c1Nc1ccc(I)cc1F [RO-4987655] | > 30 µM (inactive) |  |  | > 30 µM (inactive) | > 30 µM (inactive) |  | > 30 µM (inactive) |  |  | 
18 | N#CC[C@H](C1CCCC1)n1cc(-c2ncnc3[nH]ccc23)cn1 [RUXOLITINIB] | > 30 µM (inactive) |  |  | > 30 µM (inactive) | > 30 µM (inactive) |  | > 30 µM (inactive) |  |  | 
